Measurements published in ChEMBL document CHEMBL6177971, “Iterative Optimization Yields Stapled Peptides with Superior Pharmacokinetics and Potency for Renal Fibrosis Treatment” (J Med Chem, 2025).
Calls of active or inactive are those of the source. The calls are words filed in the database; no cut-off is given here. *1 amine or outer side, *2 acyl side, *3 side chain or, on linkers, in order; H or OH if unused. Where a SMILES comes first, the peptide text is derived from it. Bridges are numbered along the chain shown (N, C = ends). [ ]: non-standard residue; d: D form. Gly(pent-4-enyl) = C=CCCC[C@H](N)C(=O)O; Octanediyl(1,8) = C(CCCC[*:2])CCC[*:1]; X1 = CCCCC[C@](C)(N[*:1])C(=O)[*:2]; S5 = C=CCCC[C@](C)(N)C(=O)O; X2 = C(CCC[*:2])CC[*:1]; X4 = C(CC[*:2])C[*:1]

Key:
[1] = Stability in C57BL/6J mouse serum assessed as proteolysis resistance measured up to 72 hrs by HPLC analysis; assay type: ADME, cell-free
NIH3T3 [2] = test: Cytotoxicity against mouse NIH3T3 cells assessed as inhibition of cell viability up to 160 uM incubated for 48 hrs by CCK8 assay; assay type: toxicity, cell-based; conditions: nih3t3, 48 h
NIH3T3 [3] = test: Inhibition of TGF-beta1-induced EMT in mouse NIH3T3 cells assessed as decrease in fibronectin level at 10 uM incubated for 48 hrs by Western blot analysis; assay type: functional, cell-based
[4] = Half life of compound; assay type: physicochemical
NIH3T3 [5] = test: Inhibition of TGF-beta1-induced EMT in mouse NIH3T3 cells assessed as decrease in alpha-SMA level at 10 uM incubated for 48 hrs by Western blot analysis; assay type: functional, cell-based
NIH3T3 [6] = test: Cytotoxicity against mouse NIH3T3 cells assessed as inhibition of cell viability at 10 to 40 uM incubated for 48 hrs by CCK8 assay; assay type: toxicity, cell-based; conditions: nih3t3, 48 h, dose 10-40 µM
HK-2 [7] = test: Inhibition of TGF-beta1-induced EMT in human HK-2 cells assessed as decrease in collagen I level at 10 uM incubated for 24 hrs by Western blot analysis; assay type: functional, cell-based
Mus musculus [8] = test: Anti-fibrotic activity in male C57BL/6J mouse model of unilateral ureteral obstruction assessed as decrease in alpha-SMA level administered intraperitoneally every day for 7 days by Western blot analysis; assay type: functional, organism-based; conditions: route ip, time 7.0 day
Mus musculus [9] = test: Anti-fibrotic activity in male C57BL/6J mouse model of unilateral ureteral obstruction assessed as decrease in fibronectin level administered intraperitoneally every day for 7 days by Western blot analysis; assay type: functional, organism-based; conditions: route ip, time 7.0 day
Mus musculus [10] = test: Anti-fibrotic activity in male C57BL/6J mouse model of unilateral ureteral obstruction assessed as decrease in vimentin level administered intraperitoneally every day for 7 days by Western blot analysis; assay type: functional, organism-based; conditions: route ip, time 7.0 day
[11] = Toxicity in male C57BL/6J mouse model of unilateral ureteral obstruction assessed as change in animal appearance administered intraperitoneally every day for 7 days; conditions: in vivo, ip, 168 h, time 7 day
HK-2 [12] = test: Inhibition of TGF-beta1-induced EMT in human HK-2 cells assessed as decrease in alpha-SMA level at 10 uM incubated for 24 hrs by Western blot analysis; assay type: functional, cell-based
[13] = Toxicity in male C57BL/6J mouse model of unilateral ureteral obstruction assessed as change in animal body weight administered intraperitoneally every day for 7 days; conditions: in vivo, ip, 168 h, time 7 day
[14] = Retention time of compound; assay type: physicochemical
HK-2 [15] = test: Inhibition of TGF-beta1-induced EMT in human HK-2 cells assessed as decrease in fibronectin level at 10 uM incubated for 24 hrs by Western blot analysis; assay type: functional, cell-based
Mus musculus [16] = test: Anti-fibrotic activity in male C57BL/6J mouse model of unilateral ureteral obstruction assessed as increase in E-cadherin level administered intraperitoneally every day for 7 days by Western blot analysis; assay type: functional, organism-based; conditions: route ip, time 7.0 day
[17] = Toxicity in male C57BL/6J mouse model of unilateral ureteral obstruction assessed as change in animal behaviour administered intraperitoneally every day for 7 days; conditions: in vivo, ip, 168 h, time 7 day
Mus musculus [18] = test: Anti-fibrotic activity in C57BL/6J mouse model of unilateral ureteral obstruction assessed as decrease in renal fibrosis at 20 mg/kg, ip administered every day for 7 days by H and E staining based analysis; assay type: functional, organism-based; conditions: time 7.0 day
Mus musculus [19] = test: Anti-fibrotic activity in C57BL/6J mouse model of unilateral ureteral obstruction assessed as decrease in renal inflammation at 20 mg/kg, ip administered every day for 7 days by H and E staining based analysis; assay type: functional, organism-based; conditions: time 7.0 day
[20] = Half life in C57BL/6J mouse at 2.5 mg/kg, iv measured for 3 to 60 mins by HPLC/MS analysis; assay type: ADME, organism-based; conditions: in vivo, time 3-60 min

SMILES | Stability [1] | half-life [4] [h] | Activity (NIH3T3 [2]) | inhibition (NIH3T3 [3]) | inhibition (NIH3T3 [5]) | further results
C[C@@]1(C(=O)N[C@@H](CCCNC(=N)N)C(N)=O)CCC/C=C\CCC[C@](C)(NC(=O)[C@H](Cc2cnc[nH]2)NC(=O)[C@@H](N)CC(=O)O)C(=O)N[C@@H](CC(N)=O)C(=O)N2CCC[C@H]2C(=O)N[C@@H](CCC(N)=O)C(=O)N1 (H-DH[S5]NPQ[S5]R-NH2; staple (Z) 3-7) | Stable | 1.11 | Non-toxic | inactive | inactive | –
CC[C@H](C)[C@@H]1NC(=O)[C@H](CCC(N)=O)NC(=O)[C@@H]2CCCN2C(=O)[C@@](C)(NC(=O)[C@H](CC(N)=O)NC(=O)[C@H](Cc2c[nH]cn2)NC(=O)[C@@H](N)CC(=O)O)CCC/C=C/CCC[C@@](C)(C(N)=O)NC1=O (H-DHN[S5]PQI[S5]-NH2; staple (E) 4-8) | Stable | 12.3 | Non-toxic | inactive | inactive | –
CCCCC[C@](C)(NC(=O)[C@H](Cc1c[nH]cn1)NC(=O)[C@@H](N)CC(=O)O)C(=O)N[C@@H](CC(N)=O)C(=O)N1CCC[C@H]1C(=O)N[C@@H](CCC(N)=O)C(=O)N[C@H](C(=O)N[C@@H](CCCNC(=N)N)C(N)=O)[C@@H](C)CC (H-DH[X1]NPQIR-NH2) | – | – | – | – | – | inhibition (HK-2 [7]): Active; Activity (Mus musculus [8]): Active; Activity (Mus musculus [9]): Active; Activity (Mus musculus [10]): Active; Activity [11]: Non-toxic; inhibition (HK-2 [12]): Active; Activity [13]: Non-toxic; Retention_time [14]: 10.009 min; inhibition (HK-2 [15]): Active; Activity (Mus musculus [16]): Active; Activity [17]: Non-toxic
C[C@H](CS)C(=O)N1CCC[C@H]1C(=O)O | – | – | – | – | – | Activity (Mus musculus [18]): Active; Activity (Mus musculus [19]): Active
CC[C@H](C)[C@H](NC(=O)[C@H](CCC(N)=O)NC(=O)[C@@H]1CCCN1C(=O)[C@H](CS)NC(=O)[C@H](CC(N)=O)NC(=O)[C@H](Cc1c[nH]cn1)NC(=O)[C@@H](N)CC(=O)O)C(=O)N[C@@H](CS)C(N)=O (H-DHNCPQIC-NH2) | Stable | 3.82 | Non-toxic | – | – | –
C=CCCC[C@](C)(NC(=O)[C@H](Cc1c[nH]cn1)NC(=O)[C@@H](N)CC(=O)O)C(=O)N[C@H]1CSCCCCCCSC[C@@H](C(N)=O)NC(=O)[C@H]([C@@H](C)CC)NC(=O)[C@H](CCC(N)=O)NC(=O)[C@@H]2CCCN2C1=O (H-DH[S5]CPQIC-NH2; linker 4-8 via X2) | Unstable | 1.81 | Non-toxic | Active | Active | –
C=CCCC[C@](C)(NC(=O)[C@@H](C)NC(=O)[C@H](CCC(N)=O)NC(=O)[C@@H]1CCCN1C(=O)[C@](C)(CCCC=C)NC(=O)[C@H](CC(N)=O)NC(=O)[C@H](Cc1c[nH]cn1)NC(=O)[C@@H](CC(=O)O)NC(=O)CCCCCCCCCCC)C(N)=O | Stable | 656 | – | Active | Active | Activity (NIH3T3 [6]): Toxic
C=CCCC[C@](C)(NC(=O)[C@H](Cc1c[nH]cn1)NC(=O)[C@@H](CC(=O)O)NC(=O)CCCCCCCCCCC)C(=O)N[C@H]1CSCCCCCCSC[C@@H](C(N)=O)NC(=O)[C@@H](C)NC(=O)[C@H](CCC(N)=O)NC(=O)[C@@H]2CCCN2C1=O | Stable | 91.6 | Toxic | Active | Active | –
C=CCCC[C@](C)(NC(=O)[C@H](Cc1c[nH]cn1)NC(=O)[C@@H](N)CC(=O)O)C(=O)N[C@@H](CS)C(=O)N1CCC[C@H]1C(=O)N[C@@H](CCC(N)=O)C(=O)N[C@H](C(=O)N[C@@H](CS)C(N)=O)[C@@H](C)CC (H-DH[S5]CPQIC-NH2) | Stable | 1.48 | Non-toxic | – | – | –
CC[C@H](C)[C@@H]1NC(=O)[C@H](CCC(N)=O)NC(=O)[C@@H]2CCCN2C(=O)[C@@H](NC(=O)[C@H](CC(N)=O)NC(=O)[C@H](Cc2c[nH]cn2)NC(=O)[C@@H](N)CC(=O)O)CSCCCCCCCCSC[C@@H](C(N)=O)NC1=O (H-DHNCPQIC-NH2; linker 4-8 via Octanediyl(1,8)) | Unstable | 2.01 | Non-toxic | Active | Active | –
C=CCCC[C@](C)(NC(=O)[C@H](Cc1c[nH]cn1)NC(=O)[C@@H](N)CC(=O)O)C(=O)N[C@H]1CSCCCCSC[C@@H](C(N)=O)NC(=O)[C@H]([C@@H](C)CC)NC(=O)[C@H](CCC(N)=O)NC(=O)[C@@H]2CCCN2C1=O (H-DH[S5]CPQIC-NH2; linker 4-8 via X4) | – | 54.1 | Non-toxic | Active | Active | –

Continued, in another order:

Stability [1] | half-life [4] [h] | SMILES | Activity (NIH3T3 [2]) | inhibition (NIH3T3 [3]) | inhibition (NIH3T3 [5]) | further results
Stable | 208 | C=CCCC[C@](C)(NC(=O)[C@H](CCC(N)=O)NC(=O)[C@@H]1CCCN1C(=O)[C@@H](CC(N)=O)NC(=O)[C@](C)(CCCC=C)NC(=O)[C@H](Cc1c[nH]cn1)NC(=O)[C@@H](CC(=O)O)NC(=O)CCCCCCCCCCC)C(=O)N[C@@H](CCCNC(=N)N)C(N)=O | – | Active | Active | Activity (NIH3T3 [6]): Toxic
Stable | 0.9 | C=CCCC[C@H](NC(=O)[C@H](CCC(N)=O)NC(=O)[C@@H]1CCCN1C(=O)[C@H](CC(N)=O)NC(=O)[C@](C)(CCCC=C)NC(=O)[C@H](Cc1c[nH]cn1)NC(=O)[C@@H](N)CC(=O)O)C(=O)N[C@@H](CCCNC(=N)N)C(N)=O (H-DH[S5]NPQ[Gly(pent-4-enyl)]R-NH2) | Non-toxic | Active | Active | –
Stable | 5.67 | C=CCCC[C@](C)(NC(=O)[C@@H](NC(=O)[C@H](CCC(N)=O)NC(=O)[C@@H]1CCCN1C(=O)[C@](C)(CCCC=C)NC(=O)[C@H](CC(N)=O)NC(=O)[C@H](Cc1c[nH]cn1)NC(=O)[C@@H](N)CC(=O)O)[C@@H](C)CC)C(N)=O (H-DHN[S5]PQI[S5]-NH2) | Non-toxic | Active | Active | –
– | 1.64 | C=CCCC[C@](C)(NC(=O)[C@H](Cc1c[nH]cn1)NC(=O)[C@@H](N)CC(=O)O)C(=O)N[C@@H](CC(N)=O)C(=O)N1CCC[C@H]1C(=O)N[C@@H](CCC(N)=O)C(=O)N[C@H](C(=O)N[C@@H](CCCNC(=N)N)C(N)=O)[C@@H](C)CC (H-DH[S5]NPQIR-NH2) | – | – | – | half-life [20]: 0.19 h; inhibition (HK-2 [7]): Active; Activity (Mus musculus [8]): Active; Activity (Mus musculus [9]): Active; Activity (Mus musculus [10]): Active; Activity [11]: Non-toxic; inhibition (HK-2 [12]): Active; Activity [13]: Non-toxic; Retention_time [14]: 9.036 min; inhibition (HK-2 [15]): Active; Activity (Mus musculus [16]): Active; Activity [17]: Non-toxic
– | 102 | C[C@@H](NC(=O)[C@H](CCC(N)=O)NC(=O)[C@@H]1CCCN1C(=O)[C@@H](CC(N)=O)NC(=O)[C@H](Cc1ccccc1)NC(=O)[C@H](Cc1c[nH]cn1)NC(=O)[C@H](N)CC(=O)O)C(=O)N[C@@H](CCCNC(=N)N)C(N)=O | Non-toxic | Active | Active | –
